In patent US4113944A, “Cephalosporin-type antibiotics and process for producing the same” (Meiji Seika Kaisha, Ltd., priority 1974, dated 1978):
Values after ≈ are worked out from the molar mass of the structure shown. Where two headings read alike, the source gives them in different places.

Legend:
[1] = system: Escherichia coli; experiment: Minimum Inhibitory Concentration (antimicrobial activity), Escherichia coli; format: cell-based
[2] = system: Proteus vulgaris; experiment: Minimum Inhibitory Concentration (antimicrobial activity), Proteus vulgaris; format: cell-based; details: read-out: Minimum Inhibitory Concentration (MIC)
[3] = system: Salmonella; experiment: Minimum Inhibitory Concentration (antimicrobial activity), Salmonella; format: cell-based
[4] = system: Salmonella typhi W-901-10; experiment: ED50 in mice suffering from infectious disease, Salmonella typhi W-901-10; format: in vivo; details: Salmonella enterica, iv
Description: (§1) The ED50 values of the above obtained compounds were determined by intravenously administering the compounds to mice suffering from infectious diseases caused by various bacteria and were compared with those obtained using known antibiotics.

[5] = system: Proteus vulgaris C-73-9; experiment: ED50 in mice suffering from infectious disease, Proteus vulgaris C-73-9; format: in vivo
Description: as §1

[6] = system: Salmonella enteritidis No.11; experiment: ED50 in mice suffering from infectious disease, Salmonella enteritidis No.11; format: in vivo; details: Salmonella enterica
Description: as §1

[7] = system: Staphylococcus aureus Smith S-424; experiment: ED50 in mice suffering from infectious disease, Staphylococcus aureus Smith S-424; format: in vivo
Description: as §1

[8] = acute toxicity in mice (LD50); details: mouse, in vivo
[9] = system: Staphylococcus aureaus; experiment: Minimum Inhibitory Concentration (antimicrobial activity), Staphylococcus aureus; format: cell-based
[10] = system: Pseudomonas aeruginose; experiment: Minimum Inhibitory Concentration (antimicrobial activity), Pseudomonas; format: cell-based
[11] = system: Kurebusiera pneumonia; experiment: Minimum Inhibitory Concentration (antimicrobial activity), Kurebusiera pneumonia; format: cell-based
[12] = acute toxicity, mice, Example 1 as disodium salt, read-out: LD50
[13] = C739, Proteus vulgaris C-73-9 (strains produced from Cephalosporinase), intravenous, mice, Example 1 as disodium salt, read-out: ED50
[14] = Salmonella enteritidis No.11, intravenous, mice, Example 1 as disodium salt, read-out: ED50

| SMILES | MIC [1] [µg/mL] | MIC [2] [µg/mL] | MIC [3] [µg/mL] | other results |
| --- | --- | --- | --- | --- |
| O=C(O)CCc1nnc(SCC2=C(C(=O)O)N3C(=O)C(NC(=O)Cc4cccs4)[C@H]3SC2)[nH]1 (some centres unmarked) [Example 2, 7-(2-thienylacetamido)-3-[5-(2-carboxyethyl)-1,3,4-triazol-2-yl]thiomethyl-3-cephem-4-carboxylic acid] | 6.25 (≈ 12.3 µM) | 0.2 (≈ 0.392 µM) | 0.78 (≈ 1.53 µM) | – |
| Cn1c(SCC2=C(C(=O)O)N3C(=O)C(NC(=O)Cc4cccs4)C3SC2)nnc1C(=O)O (centres unmarked) [Example 7, 7-(2-thienylacetamido)-3-(5-carboxy-1-methyl-1,3,4-triazol-5-yl)-thiomethyl-3-cephem-4-carboxylic acid] | 1.56 (≈ 3.15 µM) | 0.39 (≈ 0.787 µM) | 0.78 (≈ 1.57 µM) | – |
| O=C(O)CCc1nnc(SCC2=C(C(=O)O)N3C(=O)C(NC(=O)Cc4cccs4)[C@H]3SC2)n1-c1ccccc1 (some centres unmarked) [Example 4, 7-(2-thienylacetamido)-3-[5-(2-carboxyethyl)-1-phenyl-1,3,4-triazol-2-yl]thiomethyl-3-cephem-4-carboxylic acid] | 25 (≈ 42.7 µM) | 1.56 (≈ 2.66 µM) | 25 (≈ 42.7 µM) | – |
| CC(=O)OCC1=C(C(=O)O)N2C(=O)[C@@H](NC(=O)Cc3cccs3)[C@H]2SC1 [Sodium Cephalotin, 7-(2-thienylacetamido)cephalosporanic acid, reference compound] | 6.25 | 2.5 | 3.13 | ED50 [4]: 200 mg/kg; ED50 ([5]; Proteus vulgaris, C739, iv): 14 mg/kg; ED50 ([6]; ENTERITIDIS, iv): 480 mg/kg; ED50 ([7]; Staphylococcus aureus, SMITHS424, iv): 19 mg/kg; LD50 [8, 12]: 5180 mg/kg |
| O=C(O)Cc1nnc(SCC2=C(C(=O)O)N3C(=O)C(NC(=O)Cc4cccs4)[C@H]3SC2)[nH]1 (some centres unmarked) [Example 1, 7-(2-thienylacetamido)-3-(5-carboxymethyl-1,3,4-triazol-2-yl)thiomethyl-3-cephem-4-carboxylic acid] | 6.25 (≈ 12.6 µM) | 3.13 (≈ 6.32 µM) | 0.78 (≈ 1.57 µM) | ED50 [4]: 52 mg/kg; ED50 [5, 13]: 7.3 mg/kg; ED50 [6, 14]: 27 mg/kg; ED50 ([7]; SMITHS424, Staphylococcus aureus Smith S-424, intravenous, mice, Example 1 as dipotassium salt, read-out: ED50): 8.5 mg/kg; LD50 [8, 12]: 6300 mg/kg |
| Cn1c(CCC(=O)O)nnc1SCC1=C(C(=O)O)N2C(=O)C(NC(=O)Cc3cccs3)[C@H]2SC1 (some centres unmarked) [Example 3, 7-(2-thienylacetamido)-3-[5-(2-carboxyethyl)-1-methyl-1,3,4-triazol-2-yl]thiomethyl-3-cephem-4-carboxylic acid] | 1.56 (≈ 2.98 µM) | 0.78 (≈ 1.49 µM) | 0.78 (≈ 1.49 µM) | – |
| O=C(Cc1cccs1)N[C@@H]1C(=O)N2C(C(=O)[O-])=C(C[n+]3ccccc3)CS[C@H]12 [Cephaloridine] | – | – | – | LD50 [8]: 3840 mg/kg |
| Cc1nnc(SCC2=C(C(=O)O)N3C(=O)[C@@H](NC(=O)Cn4cnnn4)[C@H]3SC2)s1 [Sodium Cephazoline] | – | – | – | ED50 [5, 13]: 18.5 mg/kg; ED50 [6, 14]: 130 mg/kg; LD50 [8, 12]: 3130 mg/kg |
| O=C(Cc1cccs1)NC1C(=O)N2C(C(=O)O)=C(CSc3nnc(C(=O)O)[nH]3)CS[C@H]12 (some centres unmarked) [Example 6, 7-(2-thienylacetamido)-3-(5-carboxy-1,3,4-triazol-2-yl)thiomethyl-3-cephem-4-carboxylic acid] | 6.25 (≈ 13 µM) | 0.2 (≈ 0.415 µM) | 3.13 (≈ 6.5 µM) | – |
| Cn1cnnc1SCC1=C(C(=O)O)N2C(=O)C(NC(=O)Cc3cccs3)C2SC1 (centres unmarked) [Example 22, 7-(2-thienylacetamide)-3-(1-methyl-1,3,4-triazol-5-yl)thiomethyl-3-cephem-4-carboxylic acid] | 6.25 (≈ 13.8 µM) | 50 (≈ 111 µM) | 1.56 (≈ 3.45 µM) | MIC [9]: 0.78 µg/mL (≈ 1.73 µM); MIC [10]: 1.56 µg/mL (≈ 3.45 µM); MIC [11]: 0.78 µg/mL (≈ 1.73 µM) |
| Cn1c(CC(=O)O)nnc1SCC1=C(C(=O)O)N2C(=O)C(NC(=O)Cc3cccs3)[C@H]2SC1 (some centres unmarked) [Example 5, 7-(2-thienylacetamido)-3-(5-carboxymethyl-1-methyl-1,3,4-triazol-2-yl)-thiomethyl-3-cephem-4-carboxylic acid] | 3.13 (≈ 6.14 µM) | 0.2 (≈ 0.392 µM) | 0.78 (≈ 1.53 µM) | – |
| O=C(Cc1cccs1)NC1C(=O)N2C(C(=O)O)=C(CSc3nnc(C(=O)O)n3-c3ccccc3)CSC12 (centres unmarked) [Example 8, 7-(2-thienylacetamido)-3-(5-carboxy-1-phenyl-1,3,4-triazol-5-yl)thiomethyl-3-cephem-4-carboxylic acid] | 25 (≈ 44.8 µM) | 0.78 (≈ 1.4 µM) | 12.5 (≈ 22.4 µM) | – |
